Measured values taken from PubChem BioAssay AID2060903 (Molecular Pharmacology Branch, DTP, NCI, 2025).

System: 377384-186-R-J1-PDC complex spheroid viability
Experiment: Anticancer human tumor 377384-186-R-J1-PDC patient-derived pancreatic carcinoma cell line growth inhibition [RAS]
Settings: for IC50: curve of first compound; for viability, T/C: stronger effect = lower value
Outline: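 Agents were tested in combination matrices in half-log decrements from a top concentration at or near clinical Cmax (10 microM if undetermined). Targets were multi-cell spheroids of tumour lines plus HUVEC and MSC stromal cells.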
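Note: spheroids exposed to compounds for seven days before readout.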

Compound: CC(C)n1nc(-c2ccc3oc(N)nc3c2)c2c(N)ncnc21 + CCn1c(-c2cc(N3CCN(C)CC3)cnc2C(C)OC)c2c3cc(ccc31)-c1csc(n1)CC(NC(=O)C1CC1C)C(=O)N1CCCC(N1)C(=O)OCC(C)(C)C2
- IC50 (second compound 0.000949 µM): 0.989 nM
- IC50 (second compound 0.003 µM): < 0.316 nM
- IC50 (second compound 0.00949 µM): < 0.316 nM
- IC50 (second compound 0.03 µM): < 0.316 nM
- IC50 (second compound 0.0949 µM): < 0.316 nM
- IC50 (second compound 0.3 µM): < 0.316 nM
- viability, T/C (second compound 0.000949 µM, first compound 0.000316 µM): 48.6%
- viability, T/C (second compound 0.000949 µM, first compound 0.001 µM): 57.8%
- viability, T/C (second compound 0.000949 µM, first compound 0.00316 µM): 35.5%
- viability, T/C (second compound 0.000949 µM, first compound 0.01 µM): 26.4%
- viability, T/C (second compound 0.000949 µM, first compound 0.0316 µM): 16.2%
- viability, T/C (second compound 0.000949 µM, first compound 0.1 µM): 10.3%
- viability, T/C (second compound 0.003 µM, first compound 0.000316 µM): 20.1%
- viability, T/C (second compound 0.003 µM, first compound 0.001 µM): 24.1%
- viability, T/C (second compound 0.003 µM, first compound 0.00316 µM): 17.6%
- viability, T/C (second compound 0.003 µM, first compound 0.01 µM): 13.7%
- viability, T/C (second compound 0.003 µM, first compound 0.0316 µM): 8.27%
- viability, T/C (second compound 0.003 µM, first compound 0.1 µM): 4.84%
- viability, T/C (second compound 0.00949 µM, first compound 0.000316 µM): 4.46%
- viability, T/C (second compound 0.00949 µM, first compound 0.001 µM): 4.86%
- viability, T/C (second compound 0.00949 µM, first compound 0.00316 µM): 4.1%
- viability, T/C (second compound 0.00949 µM, first compound 0.01 µM): 5.4%
- viability, T/C (second compound 0.00949 µM, first compound 0.0316 µM): 4.11%
- viability, T/C (second compound 0.00949 µM, first compound 0.1 µM): 2.39%
- viability, T/C (second compound 0.03 µM, first compound 0.000316 µM): 2.29%
- viability, T/C (second compound 0.03 µM, first compound 0.001 µM): 2.17%
- viability, T/C (second compound 0.03 µM, first compound 0.00316 µM): 2.37%
- viability, T/C (second compound 0.03 µM, first compound 0.01 µM): 1.66%
- viability, T/C (second compound 0.03 µM, first compound 0.0316 µM): 1.3%
- viability, T/C (second compound 0.03 µM, first compound 0.1 µM): 0.91%
- viability, T/C (second compound 0.0949 µM, first compound 0.000316 µM): 1.81%
- viability, T/C (second compound 0.0949 µM, first compound 0.001 µM): 2.1%
- viability, T/C (second compound 0.0949 µM, first compound 0.00316 µM): 2.12%
- viability, T/C (second compound 0.0949 µM, first compound 0.01 µM): 1.18%
- viability, T/C (second compound 0.0949 µM, first compound 0.0316 µM): 0.96%
- viability, T/C (second compound 0.0949 µM, first compound 0.1 µM): 0.58%
- viability, T/C (second compound 0.3 µM, first compound 0.000316 µM): 1.71%
- viability, T/C (second compound 0.3 µM, first compound 0.001 µM): 1.54%
- viability, T/C (second compound 0.3 µM, first compound 0.00316 µM): 1.69%
- viability, T/C (second compound 0.3 µM, first compound 0.01 µM): 1.04%
- viability, T/C (second compound 0.3 µM, first compound 0.0316 µM): 0.89%
- viability, T/C (second compound 0.3 µM, first compound 0.1 µM): 0.59%

Compound: CCc1c2c(nc3ccc(O)cc13)-c1cc3c(c(=O)n1C2)COC(=O)[C@]3(O)CC + C=CC(=O)N1CCN(c2nc(OCC3CCCN3C)nc3c(F)c(-c4nc(N)cc(C)c4C(F)(F)F)c(Cl)cc23)C(C)C1
- IC50 (second compound 0.00316 µM): 1.55 nM
- IC50 (second compound 0.01 µM): 1.4 nM
- IC50 (second compound 0.0316 µM): 1.41 nM
- IC50 (second compound 0.1 µM): 1.24 nM
- IC50 (second compound 0.316 µM): 1.38 nM
- IC50 (second compound 1 µM): 1.18 nM
- viability, T/C (second compound 0.00316 µM, first compound 0.000949 µM): 62.2%
- viability, T/C (second compound 0.00316 µM, first compound 0.003 µM): 33.5%
- viability, T/C (second compound 0.00316 µM, first compound 0.00949 µM): 14.6%
- viability, T/C (second compound 0.00316 µM, first compound 0.03 µM): 6.38%
- viability, T/C (second compound 0.00316 µM, first compound 0.0949 µM): 2.5%
- viability, T/C (second compound 0.00316 µM, first compound 0.3 µM): 1.05%
- viability, T/C (second compound 0.01 µM, first compound 0.000949 µM): 59%
- viability, T/C (second compound 0.01 µM, first compound 0.003 µM): 31.9%
- viability, T/C (second compound 0.01 µM, first compound 0.00949 µM): 18.1%
- viability, T/C (second compound 0.01 µM, first compound 0.03 µM): 5.58%
- viability, T/C (second compound 0.01 µM, first compound 0.0949 µM): 2.2%
- viability, T/C (second compound 0.01 µM, first compound 0.3 µM): 1.1%
- viability, T/C (second compound 0.0316 µM, first compound 0.000949 µM): 61%
- viability, T/C (second compound 0.0316 µM, first compound 0.003 µM): 28.6%
- viability, T/C (second compound 0.0316 µM, first compound 0.00949 µM): 14%
- viability, T/C (second compound 0.0316 µM, first compound 0.03 µM): 6.21%
- viability, T/C (second compound 0.0316 µM, first compound 0.0949 µM): 2.11%
- viability, T/C (second compound 0.0316 µM, first compound 0.3 µM): 1.21%
- viability, T/C (second compound 0.1 µM, first compound 0.000949 µM): 55.5%
- viability, T/C (second compound 0.1 µM, first compound 0.003 µM): 32.2%
- viability, T/C (second compound 0.1 µM, first compound 0.00949 µM): 15.7%
- viability, T/C (second compound 0.1 µM, first compound 0.03 µM): 4.22%
- viability, T/C (second compound 0.1 µM, first compound 0.0949 µM): 2.88%
- viability, T/C (second compound 0.1 µM, first compound 0.3 µM): 0.95%
- viability, T/C (second compound 0.316 µM, first compound 0.000949 µM): 57.9%
- viability, T/C (second compound 0.316 µM, first compound 0.003 µM): 33.1%
- viability, T/C (second compound 0.316 µM, first compound 0.00949 µM): 17.6%
- viability, T/C (second compound 0.316 µM, first compound 0.03 µM): 6.72%
- viability, T/C (second compound 0.316 µM, first compound 0.0949 µM): 2.76%
- viability, T/C (second compound 0.316 µM, first compound 0.3 µM): 1%
- viability, T/C (second compound 1 µM, first compound 0.000949 µM): 53.6%
- viability, T/C (second compound 1 µM, first compound 0.003 µM): 33.9%
- viability, T/C (second compound 1 µM, first compound 0.00949 µM): 18.9%
- viability, T/C (second compound 1 µM, first compound 0.03 µM): 7.03%
- viability, T/C (second compound 1 µM, first compound 0.0949 µM): 2.97%
- viability, T/C (second compound 1 µM, first compound 0.3 µM): 1.13%
